Experimental data reported in US20260159512A1, “BCAT2 INHIBITORS” (AGIOS PHARMACEUTICALS, INC., priority 2021, published 2026).

Legend:
Conditions in all cases: average where tested multiple times
hBCAT1 = target: T1, hBCAT1 (Homo sapiens, UniProt P54687); assay: BCAT1 in vitro enzyme inhibition assay (resazurin/diaphorase-coupled fluorescence); format: biochemical
T1 sequence (P54687 1-386): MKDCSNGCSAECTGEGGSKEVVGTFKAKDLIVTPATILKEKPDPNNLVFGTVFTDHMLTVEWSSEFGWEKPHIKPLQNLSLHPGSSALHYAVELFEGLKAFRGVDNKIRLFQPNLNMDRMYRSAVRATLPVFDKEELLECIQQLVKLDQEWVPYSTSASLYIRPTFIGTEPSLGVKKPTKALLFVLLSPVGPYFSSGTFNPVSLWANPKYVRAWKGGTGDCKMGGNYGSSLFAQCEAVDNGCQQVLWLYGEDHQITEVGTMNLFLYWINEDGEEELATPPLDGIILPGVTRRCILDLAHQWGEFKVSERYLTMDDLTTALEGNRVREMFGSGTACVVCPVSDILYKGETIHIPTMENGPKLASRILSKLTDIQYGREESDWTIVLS
Method in brief: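 Ten-point, 3-fold compound series (top final 100 μM, delivered 1:50 from 50× DMSO stocks) tested against hBCAT1. Inhibition detected via diaphorase-coupled resazurin fluorescence, duplicate wells, with values from repeated runs averaged.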

BCAT2 [1] = target: T2, BCAT2 (Homo sapiens, UniProt O15382); assay: BCAT2 in vitro cell inhibition using engineered A549 cells (KMV cell assay, 13C6-KMV by LC-MS/MS); format: cell-based; set-up: The result was an engineered A549 cell line that expressed endogenous BCAT2; endogenous in cells; host or cells: A549 cells with MUT and BCAT1 knocked out by CRISPR/CAS9; key to BCAT2 Cell Inhibition: A: less than or equal to 0.100 μM; B: greater than 0.100 and less than or equal to 0.500 μM; C: greater than 0.500 and less than or equal to 1.000 μM; d: greater than 1.000 μM; E: no fit
T2 sequence (O15382 28-392): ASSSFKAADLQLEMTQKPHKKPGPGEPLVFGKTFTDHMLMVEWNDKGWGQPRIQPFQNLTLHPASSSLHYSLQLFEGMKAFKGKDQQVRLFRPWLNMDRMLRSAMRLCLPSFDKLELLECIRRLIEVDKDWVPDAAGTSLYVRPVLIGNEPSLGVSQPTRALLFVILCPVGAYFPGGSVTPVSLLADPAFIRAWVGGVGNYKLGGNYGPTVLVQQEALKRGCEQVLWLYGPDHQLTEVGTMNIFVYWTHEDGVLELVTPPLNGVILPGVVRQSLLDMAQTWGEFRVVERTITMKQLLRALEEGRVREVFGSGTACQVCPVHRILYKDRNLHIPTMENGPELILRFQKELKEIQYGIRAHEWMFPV

BCAT2 [2] = target: T2, BCAT2; assay: BCAT2 in vitro enzyme inhibition assay (resazurin/diaphorase-coupled fluorescence); format: biochemical
Method in brief: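 Coupled fluorescence readout: glutamate formed from L-leucine/α-ketoglutarate transamination drives GDH/NAD/diaphorase reduction of resazurin (Ex 540/Em 590). Human BCAT2 was first exposed 1 h at room temperature to compound, top final 100 μM in 3-fold, 10-point series; substrate reaction ran 1 h before SDS quench, in technical duplicate with DMSO max and enzyme-free min controls.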

| Compound | IC50 (hBCAT1) [µM] | IC50 (BCAT2 [1]) [µM] | IC50 (BCAT2 [2]) [µM] | BCAT2 Cell Inhibition (BCAT2 [1]) |
| --- | --- | --- | --- | --- |
| C=Cc1csc(C(=O)N[C@H]2CCC[C@@H](n3c(-c4ccccc4F)nc4cnc(-c5nc[nH]n5)cc43)C2)n1 [Example 173, N-((1S,3R)-3-(2-(2-fluorophenyl)-6-(1H-1,2,4-triazol-3-yl)-1H-imidazo[4,5-c]pyridin-1-yl)cyclohexyl)-4-vinylthiazole-2-carboxamide] | 1 to 5 | 0.5 to 1 | ≤ 0.1 |  |
| O=C(N[C@H]1CCC[C@@H](n2c(-c3ccccc3C(=O)O)nc3cnc(-n4nccn4)cc32)C1)c1ncc(C(F)F)s1 [Example 99, 2-(1-((1R,3S)-3-(5-(difluoromethyl)thiazole-2-carboxamido)cyclohexyl)-6-(2H-1,2,3-triazol-2-yl)-1H-imidazo[4,5-c]pyridin-2-yl)benzoic acid] | 1 to 5 |  | ≤ 0.1 | E |
| O=C(N[C@H]1CCC[C@@H](n2c(-c3ccccc3F)nc3cnc(-c4cn[nH]c4)cc32)C1)c1ncc(Cl)s1 [Example 81, 5-chloro-N-((1S,3R)-3-(2-(2-fluorophenyl)-6-(1H-pyrazol-4-yl)-1H-imidazo[4,5-c]pyridin-1-yl)cyclohexyl)thiazole-2-carboxamide] | < 0.5 | 0.1 to 0.5 | ≤ 0.1 |  |
| CC(C)Cc1nc2cnc(-n3cc(F)cn3)cc2n1[C@@H]1CCC[C@H](NC(=O)c2ncc(Cl)s2)[C@H]1O [Example 232, 5-chloro-N-((1S,2R,3R)-3-(6-(4-fluoro-1H-pyrazol-1-yl)-2-isobutyl-1H-imidazo[4,5-c]pyridin-1-yl)-2-hydroxycyclohexyl)thiazole-2-carboxamide] | < 0.5 | 0.5 to 1 | ≤ 0.1 |  |
| CC(C)Cc1nc2cnc(-c3cc4ccccc4o3)cc2n1[C@@H]1CCC[C@H](NC(=O)c2ncc(Cl)s2)C1 [Example 320, N-((1S,3R)-3-(6-(benzofuran-2-yl)-2-isobutyl-1H-imidazo[4,5-c]pyridin-1-yl)cyclohexyl)-5-chlorothiazole-2-carboxamide] | 1 to 5 |  | 0.1 to 0.5 | E |
| CC(C)Cc1nc2cnc(-c3nc[nH]n3)cc2n1[C@H]1C[C@@H](NC(=O)c2ncc(Cl)s2)CN(C)C1 (single isomer, unassigned) [Example 136] | < 0.5 | ≤ 0.1 | ≤ 0.1 |  |
| Cn1ccc(Oc2cc3c(cn2)nc(-c2ncccc2F)n3[C@@H]2CCC[C@H](NC(=O)c3ncc(C(F)F)s3)C2)n1 [Example 268, 5-(difluoromethyl)-N-((1S,3R)-3-(2-(3-fluoropyridin-2-yl)-6-((1-methyl-1H-pyrazol-3-yl)oxy)-1H-imidazo[4,5-c]pyridin-1-yl)cyclohexyl)thiazole-2-carboxamide] | > 5 |  | 0.5 to 1 |  |
| CNC(=O)c1cc2nc(-c3ccccn3)n(C3CC(NC(=O)c4ccc(Br)s4)CN(C)C3)c2cc1OC (stereo not shown) [Example 290, 1-(5-(5-bromothiophene-2-carboxamido)-1-methylpiperidin-3-yl)-6-methoxy-N-methyl-2-(pyridin-2-yl)-1H-benzo[d]imidazole-5-carboxamide] | > 5 |  | ≤ 0.1 |  |
| CC(C)(O)c1nc2cnc(-n3cncn3)cc2n1[C@@H]1CCC[C@H](NC(=O)c2ccc(Br)s2)C1 [Example 92, 5-bromo-N-((1S,3R)-3-(2-(2-hydroxypropan-2-yl)-6-(1H-1,2,4-triazol-1-yl)-1H-imidazo[4,5-c]pyridin-1-yl)cyclohexyl)thiophene-2-carboxamide] | > 5 |  | > 1 |  |
| O=C(NC1CCC(n2c(-c3ccccn3)nc3cnc(-n4nccn4)cc32)C1)c1ccc(Br)s1 (stereo not shown) [Example 93, 5-bromo-N-(3-(2-(pyridin-2-yl)-6-(2H-1,2,3-triazol-2-yl)-1H-imidazo[4,5-c]pyridin-1-yl)cyclopentyl)thiophene-2-carboxamide] | > 5 |  | 0.1 to 0.5 |  |
| Cc1cn(-c2cc3c(cn2)nc(-c2ccccn2)n3[C@@H]2CCC[C@H](NC(=O)c3ccc(Br)s3)C2)nn1 [Example 40, 5-bromo-N-((1S,3R)-3-(6-(4-methyl-1H-1,2,3-triazol-1-yl)-2-(pyridin-2-yl)-1H-imidazo[4,5-c]pyridin-1-yl)cyclohexyl)thiophene-2-carboxamide] | 1 to 5 |  | ≤ 0.1 |  |
| CC(C)(O)c1cnn(-c2cc3c(cn2)nc(-c2ccccn2)n3[C@@H]2CCC[C@H](NC(=O)c3ncc(C(F)F)s3)C2)n1 [Example 70, 5-(difluoromethyl)-N-((1S,3R)-3-(6-(4-(2-hydroxypropan-2-yl)-2H-1,2,3-triazol-2-yl)-2-(pyridin-2-yl)-1H-imidazo[4,5-c]pyridin-1-yl)cyclohexyl)thiazole-2-carboxamide] | > 5 |  | ≤ 0.1 |  |
| O=C(N[C@H]1CCC[C@@H](n2c(-c3ccccc3F)nc3cnc(N4CCC4)cc32)C1)c1ccc(Br)s1 [Example 301, N-((1S,3R)-3-(6-(azetidin-1-yl)-2-(2-fluorophenyl)-1H-imidazo[4,5-c]pyridin-1-yl)cyclohexyl)-5-bromothiophene-2-carboxamide] | > 5 |  | > 1 |  |
| CC(C)Cc1nc2cnc(-n3nccn3)cc2n1[C@H]1CCC[C@@H](NC(=O)c2ccc(Cl)s2)[C@@H]1O [Example 394, 5-chloro-N-((1R,2S,3S)-2-hydroxy-3-(2-isobutyl-6-(2H-1,2,3-triazol-2-yl)-1H-imidazo[4,5-c]pyridin-1-yl)cyclohexyl)thiophene-2-carboxamide] | 1 to 5 |  | > 1 |  |
| C#Cc1cnc(C(=O)N[C@H]2CCC[C@@H](n3c(-c4ccccn4)nc4cnc(-n5cncn5)cc43)C2)s1 [Example 27, 5-ethynyl-N-((1S,3R)-3-(2-(pyridin-2-yl)-6-(1H-1,2,4-triazol-1-yl)-1H-imidazo[4,5-c]pyridin-1-yl)cyclohexyl)thiazole-2-carboxamide] | 1 to 5 |  | ≤ 0.1 |  |
| CC(C)Cc1nc2cnc(-c3cccc4ccoc34)cc2n1[C@@H]1CCC[C@H](NC(=O)c2ncc(Cl)s2)C1 [Example 327, N-((1S,3R)-3-(6-(benzofuran-7-yl)-2-isobutyl-1H-imidazo[4,5-c]pyridin-1-yl)cyclohexyl)-5-chlorothiazole-2-carboxamide] | 1 to 5 |  | 0.1 to 0.5 |  |
| O=C(NC1CCCC(n2c(-c3ccccn3)nc3cc(-c4ncon4)ncc32)C1)c1ccc(Br)s1 (stereo not shown) [Example 155, N-(3-(6-(1,2,4-oxadiazol-3-yl)-2-(pyridin-2-yl)-3H-imidazo[4,5-c]pyridin-3-yl)cyclohexyl)-5-bromothiophene-2-carboxamide] | 1 to 5 |  | ≤ 0.1 |  |
| O=C(N[C@H]1CCC[C@@H](n2c(-c3ncccc3F)nc3cnc(N4CCNC4=O)cc32)C1)c1ncc(C(F)F)s1 [Example 54, 5-(difluoromethyl)-N-((1S,3R)-3-(2-(3-fluoropyridin-2-yl)-6-(2-oxoimidazolidin-1-yl)-1H-imidazo[4,5-c]pyridin-1-yl)cyclohexyl)thiazole-2-carboxamide] | > 5 |  | ≤ 0.1 |  |
| Cc1nc2cnc(-n3nccn3)cc2n1[C@@H]1CCC[C@H](NC(=O)c2ccc(Br)s2)C1 [Example 51, 5-bromo-N-((1S,3R)-3-(2-methyl-6-(2H-1,2,3-triazol-2-yl)-1H-imidazo[4,5-c]pyridin-1-yl)cyclohexyl)thiophene-2-carboxamide] | > 5 |  | > 1 |  |
| O=C(NC1CCC(n2c(-c3ccccn3)nc3cnc(-n4ccnn4)cc32)C1)c1ccc(Br)s1 (stereo not shown) [Example 94, 5-bromo-N-(3-(2-(pyridin-2-yl)-6-(1H-1,2,3-triazol-1-yl)-1H-imidazo[4,5-c]pyridin-1-yl)cyclopentyl)thiophene-2-carboxamide] | > 5 |  | > 1 |  |
